# In PubChem BioAssay (NCI):
# Values joined by “and” are separate entries in the source; they are usually repeats but may differ in a detail not shown here. Equal values may be shown once.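 How tested: cells in 96-well plates exposed to compound for 48 hours at five concentrations. GI50 marks 50% less growth. The concentration for full growth arrest is given as TGI.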
# Tested on: MDA-MB-435
# Experiment: inhibition of tumour cell growth, NCI panel, 48 h
Compound,GI50,TGI
C/C(=N\NC(=O)c1ccncc1)c1ccccc1O,6.37 µM,> 100 µM
Cc1cccc(Cc2cnc(NC(=O)CCCOc3ccc(Cl)cc3)s2)c1,1.62 µM,4.32 µM
COC(=O)C(NC(=O)c1ccccc1)c1ccc(OC)c(I)c1 (configuration not stated),39.6 µM,> 100 µM
CC(=O)OC1CCC2(C)C(=CCC3C4CC(CN5CC5)C(=O)C4(C)CCC32)C1 (configuration not stated),14.8 µM,28.4 µM
O=C(/C=C/N1CCN(c2cccc(Cl)c2)CC1)c1ccc(Cl)cc1,19.3 µM,50.2 µM
CCn1c(SC)nnc1-c1cc2c([nH]c3ccccc32)c(-c2cccc(O)c2)n1,0.248 µM,0.851 µM
O=C(COC(=O)[C@H](C[Se][Se]C[C@H](NC(=O)c1ccc(Br)cc1F)C(=O)OCC(=O)c1ccc(F)cc1)NC(=O)c1ccc(Br)cc1F)c1ccc(F)cc1,1.89 µM,4.3 µM
COc1cc(COC(=O)NC(Cc2cccs2)C(=O)O)c([N+](=O)[O-])cc1OC (configuration not stated),–,> 100 µM
CN(C)C(=O)c1cc2cnc(Nc3ccc(N4CCNCC4)cn3)nc2n1C1CCCC1,12.7 µM,36.6 µM
O=C1C(=O)c2c(ccc3ccccc23)-c2ccccc21,1.59 µM,3.52 µM
CC(C)(CCc1nc2ccccc2[nH]1)C(=O)O,–,> 100 µM
CCc1c[nH]c2ncnc(N3CC[C@](N)(CNC(=O)c4ccc(F)cc4F)C3)c12,12.8 µM,> 79.7 µM
COc1cc2nccc(Oc3ccc(NC(=O)C4(C(=O)Nc5ccc(F)cc5)CC4)cc3)c2cc1OC,7.54 µM and 2.67 µM,> 10 µM and 21.2 µM
O=C(c1ccccc1)c1ccc(N2C(=O)C3C4c5ccccc5C(/C=C/C(=O)c5ccccn5)(c5ccccc54)C3C2=O)cc1 (configuration not stated),2.9 µM,9.22 µM
Cc1cc(C2(c3cc(C)c(O)c4ncccc34)OC(=O)c3ccccc32)c2cccnc2c1O,–,> 100 µM
O=C1COc2c(CCNCCN(C(=O)CCNCCc3ccc(Cl)c(Cl)c3)C3CCCCC3)ccc(O)c2N1,14.9 µM,28.5 µM
Nc1ccc(N)c2c1C(=O)c1cccc([N+](=O)[O-])c1C2=O,6.3 µM,> 100 µM
c1csc(-c2[nH]nc3c2CCc2ccccc2-3)c1,19.2 µM,42.6 µM

Compound,GI50,TGI
COc1cc(/C=C/C(=O)c2c(-c3ccc(Cl)cc3)nc3sc(C)nn23)cc(OC)c1OC,12.1 µM,> 100 µM
COc1ccc(S(=O)(=O)NCCCNc2nccc(-c3c(-c4ccc(F)cc4)nc4sccn34)n2)cc1,3.28 µM,> 100 µM
O=C1OC(c2ccccc2)=N/C1=C\c1ccc(N(CCCl)CCCl)cc1,–,> 100 µM
N#Cc1c(N)nc(N2CCOCC2)c(C#N)c1-c1ccc(Cl)cc1Cl,5.75 µM,21.9 µM
COc1ccc(-c2ccc(/C=N/n3c(COc4ccc(Cl)c(C)c4)nn(CN4CCOCC4)c3=S)o2)c([N+](=O)[O-])c1,21 µM,49.5 µM
Cn1c(=O)c(Oc2ccc(F)cc2F)cc2cnc(NC3CCC(O)CC3)nc21 (configuration not stated),> 25 µM,> 25 µM
COc1ccc(Cl)cc1Nc1nc(C(F)(F)F)ccc1C(=O)N/N=C/c1ccc(Cl)cc1,> 100 µM,> 100 µM
CCNc1nc(-c2ccc(Cl)c(OC)c2)c(-c2ccnc(NCCNS(=O)(=O)c3ccc(Cl)cc3)n2)s1,3.02 µM,40.6 µM
COc1ccc(C[C@H](N)C(=O)N[C@@H]2[C@@H](CO)OC(n3cnc4c(N(C)C)ncnc43)[C@@H]2O)cc1 (some centres not stated),0.214 µM,0.809 µM
CCC(=C(c1ccc(OCCN(CC)CC)cc1)c1ccc(OCCN(CC)CC)cc1)c1ccc(Cl)cc1,0.578 µM,1.07 µM
Brc1ccc2c(c1)-c1ccccc1C1=NCCN12,1.06 µM,2.45 µM
COc1cccc2c(Nc3ccc(C(=O)NCCN4CCNCC4)cc3)cc(-c3ccccc3)nc12,35.9 µM,> 100 µM
CS(=O)(=O)Nc1ccc(Nc2c3ccccc3nc3cc(Cl)ccc23)cc1,3.48 µM,17.1 µM
ClCc1ccc(Cn2cnc3nc(Cl)nc(Cl)c32)cc1,1.71 µM,3.19 µM
Clc1ccc(N=CNc2ccc(-c3nc4ccccc4[nH]3)cc2)cc1,6.88 µM,> 100 µM
OCCn1c(-c2ccncc2)c(-c2ccc(F)cc2)c2ncccc21,> 25 µM,> 25 µM
Cc1c(-c2ccc(N3CCc4cccc(C(=O)Nc5nc6ccccc6s5)c4C3)nc2C(=O)O)cnn1CC12CC3CC(CC(C3)C1)C2,6.77 µM,28.3 µM
O=C(Nc1cccc(C(F)(F)F)c1)Nc1cc(S(=O)(=O)NC2CC2)ccc1-c1ccsc1,3.61 µM,13.1 µM

# Tested on: MDA-N
# Experiment: inhibition of tumour cell growth, NCI panel, 48 h
row,Compound,TGI [µM]
1,COc1cc(COC(=O)NC(Cc2cccs2)C(=O)O)c([N+](=O)[O-])cc1OC (configuration not stated),> 100
2,CC(C)(CCc1nc2ccccc2[nH]1)C(=O)O,> 100
3,Cc1cc(C2(c3cc(C)c(O)c4ncccc34)OC(=O)c3ccccc32)c2cccnc2c1O,> 100
4,O=C1OC(c2ccccc2)=N/C1=C\c1ccc(N(CCCl)CCCl)cc1,> 100
